ChEMBL document CHEMBL1130515, “4-Heterocyclyl tetrahydropyridines as selective ligands for the human dopamine D4 receptor” (Bioorg Med Chem Lett, 1997)

Legend:
D(4) dopamine receptor = molecular target: T1, D(4) dopamine receptor (Homo sapiens, UniProt P21917); assay: Displacement of [3H]spiperone from human dopamine receptor subtype hD4 expressed in HEK293 cells; format: cell-based
T1 sequence (P21917 whole entry): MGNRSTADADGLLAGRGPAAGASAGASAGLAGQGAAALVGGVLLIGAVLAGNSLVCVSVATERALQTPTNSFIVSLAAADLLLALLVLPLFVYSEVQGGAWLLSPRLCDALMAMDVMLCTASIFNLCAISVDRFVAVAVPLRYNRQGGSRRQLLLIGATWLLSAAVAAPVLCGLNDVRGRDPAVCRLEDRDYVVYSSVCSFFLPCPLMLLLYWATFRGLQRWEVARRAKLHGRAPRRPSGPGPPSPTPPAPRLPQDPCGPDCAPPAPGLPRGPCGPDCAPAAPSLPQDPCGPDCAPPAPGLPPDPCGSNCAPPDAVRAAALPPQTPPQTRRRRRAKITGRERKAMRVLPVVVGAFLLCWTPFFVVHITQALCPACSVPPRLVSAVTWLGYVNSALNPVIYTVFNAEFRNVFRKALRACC

D(2) dopamine receptor = D(2) dopamine receptor (Homo sapiens, UniProt P14416); assay: Displacement of [3H]spiperone from human dopamine D2 receptor in CHO cells; format: cell-based
D(3) dopamine receptor = D(3) dopamine receptor (Homo sapiens, UniProt P35462); assay: Displacement of [3H]spiperone from human dopamine receptor subtype hD3 expressed in CHO cells; format: cell-based
[1] = molecular target: Dopamine receptors; D2 & D4 (Homo sapiens) (UniProt P14416+P21917); assay: Ratio of dopamine D2/D4 receptor binding; format: protein assay
[2] = Bioavailability was evaluated in rat at an intravenous dose of 3 mg/kg and peroral dose of 5 mg/kg; format: ADME, organism-based; conditions: in vivo, po, read-out: Bioavailabiility
Rattus norvegicus [3] = assay: Volume of distribution (Vss) was evaluated in rat at an intravenous dose of 3 mg/kg and peroral dose of 5 mg/kg; format: ADME, organism-based; conditions: in vivo
[4] = Maximum concentration in plasma (Cmax) was evaluated in rat at an intravenous dose of 3 mg/kg and peroral dose of 5 mg/kg; format: ADME, organism-based; conditions: po
Rattus norvegicus [5] = assay: Plasma clearance was evaluated in rat at an intravenous dose of 3 mg/kg and peroral dose of 5 mg/kg; format: ADME, organism-based; conditions: in vivo
[6] = Maximum concentration in plasma (Cmax) was evaluated in rhesus monkey at an intravenous dose of 1 mg/kg and peroral dose of 1 mg/kg; format: ADME, organism-based, Macaca mulatta; conditions: po
[7] = Half life was evaluated in rhesus monkey at an intravenous dose of 1 mg/kg and peroral dose of 1 mg/kg; format: ADME, organism-based, Macaca mulatta; conditions: in vivo
[8] = Bioavailability was evaluated in rhesus monkey at an intravenous dose of 1 mg/kg and peroral dose of 1 mg/kg; format: ADME, organism-based, Macaca mulatta; conditions: in vivo, po, read-out: Bioavailabiility
Rhesus monkey = assay: Volume of distribution (Vss) was evaluated in rhesus monkey at an intravenous dose of 1 mg/kg and peroral dose of 1 mg/kg; format: ADME, organism-based, Macaca mulatta; conditions: in vivo
[9] = Half life was evaluated in rat at an intravenous dose of 3 mg/kg and peroral dose of 5 mg/kg; format: ADME, organism-based; conditions: in vivo

Sequence of D(3) dopamine receptor (P35462 whole entry): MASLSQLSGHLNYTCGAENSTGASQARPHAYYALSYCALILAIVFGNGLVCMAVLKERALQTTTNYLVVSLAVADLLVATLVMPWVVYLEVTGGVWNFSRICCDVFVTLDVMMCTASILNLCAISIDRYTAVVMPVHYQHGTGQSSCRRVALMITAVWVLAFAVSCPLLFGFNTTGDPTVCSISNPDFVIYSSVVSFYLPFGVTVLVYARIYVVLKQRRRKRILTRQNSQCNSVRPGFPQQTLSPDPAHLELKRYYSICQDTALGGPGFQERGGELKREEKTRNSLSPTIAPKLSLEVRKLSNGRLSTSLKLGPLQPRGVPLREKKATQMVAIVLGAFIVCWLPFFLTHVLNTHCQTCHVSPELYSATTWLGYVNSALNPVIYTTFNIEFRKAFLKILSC
Sequence of Dopamine receptors; D2 & D4 (Homo sapiens) (P14416 whole entry, looked up, one chain of several): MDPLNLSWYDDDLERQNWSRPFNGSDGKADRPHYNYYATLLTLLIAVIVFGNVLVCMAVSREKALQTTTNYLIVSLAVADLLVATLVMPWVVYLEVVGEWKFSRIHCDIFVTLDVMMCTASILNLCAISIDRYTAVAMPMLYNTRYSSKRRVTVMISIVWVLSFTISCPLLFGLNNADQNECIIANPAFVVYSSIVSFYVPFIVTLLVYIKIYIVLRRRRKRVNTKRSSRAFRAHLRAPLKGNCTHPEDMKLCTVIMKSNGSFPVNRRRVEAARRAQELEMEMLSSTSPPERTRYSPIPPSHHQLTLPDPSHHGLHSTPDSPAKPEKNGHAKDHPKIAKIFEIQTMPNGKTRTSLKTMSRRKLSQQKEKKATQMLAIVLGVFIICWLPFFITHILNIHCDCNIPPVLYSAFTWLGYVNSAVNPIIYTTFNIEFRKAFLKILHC
Sequence of D(2) dopamine receptor (P14416 whole entry): as the sequence (P14416 whole entry, looked up, one chain of several) above

SMILES | Ki (D(4) dopamine receptor) | Ki (D(2) dopamine receptor) | Ki (D(3) dopamine receptor) | Ratio [1] | bioavailability [2] | Vss (Rattus norvegicus [3]) | Cmax [4] | Plasma clearance (Rattus norvegicus [5]) | Cmax [6] | half-life [7] | bioavailability [8] | Vss (Rhesus monkey) | half-life [9]
Clc1cccc(CN2CC=C(c3nc4ccccc4s3)CC2)c1 | 8.1 nM | 340 nM | 630 nM | 42 |  |  |  |  |  |  |  |  | 
Clc1ccc(CN2CC=C(c3nc4cc(Cl)ccc4[nH]3)CC2)cc1 | 10 nM | 330 nM | 900 nM | 33 |  |  |  |  |  |  |  |  | 
C1=C(c2nc3ccccc3o2)CCN(Cc2ccccc2)C1 | 97 nM | 240 nM | 4500 nM | 3 |  |  |  |  |  |  |  |  | 
C1=C(c2nc3ccccc3s2)CCN(Cc2ccccc2)C1 | 5 nM | 600 nM | 560 nM | 120 |  |  |  |  |  |  |  |  | 
Clc1ccc(CN2CC=C(c3nc4cc(Cl)ccc4s3)CC2)cc1 | 21 nM | 2000 nM | 660 nM | 97 |  |  |  |  |  |  |  |  | 
Clc1ccc2[nH]c(C3=CCN(Cc4ccccc4)CC3)nc2c1 | 26 nM | 590 nM | 2900 nM | 23 |  |  |  |  |  |  |  |  | 
Clc1ccc2sc(C3=CCN(Cc4ccccc4)CC3)nc2c1 | 44 nM | > 1600 nM | 1800 nM | > 36 |  |  |  |  |  |  |  |  | 
C1=C(c2nc3ccccc3[nH]2)CCN(Cc2ccccc2)C1 | 94 nM | 1400 nM | 4400 nM | 15 |  |  |  |  |  |  |  |  | 
Clc1ccc(CN2CC=C(c3nc4cc(Cl)ccc4o3)CC2)cc1 | 8.4 nM | > 1700 nM | > 4500 nM | > 200 |  |  |  |  |  |  |  |  | 
Clc1ccc(CN2CC=C(c3nc4ccccc4s3)CC2)cc1 | 1.3 nM | > 1600 nM | > 4400 nM | > 1000 | 17% | 3.81 kg⁻¹ | 97 ng/mL | 39 Clp | 23 ng/mL | 4.7 h | 9% | 2.5 kg⁻¹ | 3.1 h
Clc1ccccc1CN1CC=C(c2nc3ccccc3s2)CC1 | 87 nM | > 2000 nM | 1400 nM | > 23 |  |  |  |  |  |  |  |  | 
Clc1ccc2oc(C3=CCN(Cc4ccccc4)CC3)nc2c1 | 17 nM | > 1800 nM | 1600 nM | > 100 |  |  |  |  |  |  |  |  | 
Clc1ccc(CN2CC=C(c3nc4ccccc4[nH]3)CC2)cc1 | 68 nM | 670 nM | 1600 nM | 10 |  |  |  |  |  |  |  |  | 
